We go through twelve molecules from patent US20250368666A1, “INDAZOLE COMPOUNDS” (TYRA BIOSCIENCES, INC., priority 2022, published 2025).

SMILES strings stand for the structures.

Assay [1] has as its system MDA-MB-453 cell line (FGFR4-Y367C). As to the kind of experiment: Cancer cell line cell viability assay (Cell Titer-Glo), 120 hr. It counts as cell-based. To be noted: Homo sapiens. The method in brief: (§1)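 Following overnight attachment, each line receives compound in triplicate across nine 4-fold dilutions starting at 3 μM, with DMSO backfill for equal solvent. Luminescence after Cell Titer-Glo 2.0 addition gives percent viability versus DMSO control, fitted by 4-parameter logistic for IC50.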
In general terms: ATP-based viability assays read luminescence as a measure of living cells.

The subject of assay [2] is KG-1 cell line (FGFR 1-fusion). As to the kind of experiment: Cancer cell line cell viability assay (Cell Titer-Glo), 72 hr. Format: cell-based. To be noted: Homo sapiens, KG-1, KG-1 cell line (FGFR1-fusion). The gist of the method: as §1
In assay [3] the test system is RT112/84 cell line (FGFR3-fusion). The description is as above. It counts as cell-based. To be noted: Homo sapiens, RT112/84, RT112/84 cell line (FGFR3-fusion). The gist of the method:
as §1

In assay [4] the test system is KATO-III cell line (FGFR2 amplification). Described as above. It counts as cell-based. To be noted: Homo sapiens, KATO III. The gist of the method: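 5,000-20,000 cells/well o/n; cpd 9-pt 4x dil from 3 μM, n=3; 37° C/5% CO2; CTG 2.0 lumi; % DMSO ctrl; 4PL IC50.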
For a further assay, the target named is T1, FGFR4 (Homo sapiens, UniProt P22455).
T1 construct: made in house; host or cells: E. coli (BL21-derived), T7 phage
T1 sequence (P22455 22-802): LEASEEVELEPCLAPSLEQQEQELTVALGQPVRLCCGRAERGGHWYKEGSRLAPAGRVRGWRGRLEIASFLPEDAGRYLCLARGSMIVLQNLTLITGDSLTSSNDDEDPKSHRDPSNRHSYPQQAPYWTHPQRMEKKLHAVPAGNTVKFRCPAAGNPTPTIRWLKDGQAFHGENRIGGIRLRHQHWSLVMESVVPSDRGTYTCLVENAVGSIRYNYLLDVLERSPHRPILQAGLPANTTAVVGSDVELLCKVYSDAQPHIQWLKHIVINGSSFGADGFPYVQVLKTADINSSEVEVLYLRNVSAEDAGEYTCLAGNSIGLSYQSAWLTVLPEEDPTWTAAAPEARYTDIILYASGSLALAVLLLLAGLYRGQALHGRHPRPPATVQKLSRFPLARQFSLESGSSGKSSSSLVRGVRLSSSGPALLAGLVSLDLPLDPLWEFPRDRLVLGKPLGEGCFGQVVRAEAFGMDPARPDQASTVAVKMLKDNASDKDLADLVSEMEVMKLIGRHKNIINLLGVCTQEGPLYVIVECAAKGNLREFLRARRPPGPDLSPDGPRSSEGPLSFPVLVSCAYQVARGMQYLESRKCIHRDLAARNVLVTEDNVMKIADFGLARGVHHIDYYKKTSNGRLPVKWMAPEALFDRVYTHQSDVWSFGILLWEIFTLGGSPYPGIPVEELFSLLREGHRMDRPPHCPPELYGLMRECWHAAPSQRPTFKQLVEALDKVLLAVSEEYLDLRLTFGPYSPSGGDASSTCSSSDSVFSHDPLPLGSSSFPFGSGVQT
Description: Kinase binding assay (kinase-tagged T7 phage, affinity beads, qPCR), Kd. To be noted: read-out: FGFR4 (Kd nM). The method in brief: (§2)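 Readout was qPCR of kinase eluted from ligand-coated affinity beads after competition with test compound. Kinases were expressed as T7 phage fusions in E. coli. Binding constants were derived by non-linear least-squares Hill fitting, Hill slope −1.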
On the technique in general: Real-time PCR tracks product formation cycle by cycle.

For another assay, the target named is T2, FGFR2 (Homo sapiens, UniProt P21802).
T2 construct: made in house; host or cells: E. coli (BL21-derived), T7 phage
T2 sequence (P21802 22-821): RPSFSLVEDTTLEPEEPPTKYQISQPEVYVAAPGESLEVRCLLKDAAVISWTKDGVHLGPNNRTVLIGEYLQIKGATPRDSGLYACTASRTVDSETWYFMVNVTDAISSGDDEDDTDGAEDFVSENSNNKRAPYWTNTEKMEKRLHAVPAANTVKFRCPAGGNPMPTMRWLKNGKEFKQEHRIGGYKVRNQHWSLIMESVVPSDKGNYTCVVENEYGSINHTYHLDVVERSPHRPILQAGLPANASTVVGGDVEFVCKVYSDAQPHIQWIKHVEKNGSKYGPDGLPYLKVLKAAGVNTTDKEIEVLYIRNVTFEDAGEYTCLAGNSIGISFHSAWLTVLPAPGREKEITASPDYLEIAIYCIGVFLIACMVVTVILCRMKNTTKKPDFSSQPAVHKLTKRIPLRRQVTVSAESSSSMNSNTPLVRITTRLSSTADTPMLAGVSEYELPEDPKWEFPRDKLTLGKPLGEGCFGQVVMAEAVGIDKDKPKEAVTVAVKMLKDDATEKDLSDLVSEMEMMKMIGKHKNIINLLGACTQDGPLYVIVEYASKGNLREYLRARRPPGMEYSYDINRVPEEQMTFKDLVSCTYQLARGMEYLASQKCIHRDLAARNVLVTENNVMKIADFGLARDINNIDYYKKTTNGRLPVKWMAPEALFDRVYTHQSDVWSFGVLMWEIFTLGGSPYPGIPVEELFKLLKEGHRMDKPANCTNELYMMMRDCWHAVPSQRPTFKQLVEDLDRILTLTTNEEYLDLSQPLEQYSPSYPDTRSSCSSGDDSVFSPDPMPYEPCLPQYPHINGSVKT
The assay is described as above. To be noted: read-out: FGFR2 (Kd nM). The method in brief:
as §2

The target of the next assay is T3, FGFR1 (Homo sapiens, UniProt P11362).
T3 construct: made in house; host or cells: E. coli (BL21-derived), T7 phage
T3 sequence (P11362 22-822): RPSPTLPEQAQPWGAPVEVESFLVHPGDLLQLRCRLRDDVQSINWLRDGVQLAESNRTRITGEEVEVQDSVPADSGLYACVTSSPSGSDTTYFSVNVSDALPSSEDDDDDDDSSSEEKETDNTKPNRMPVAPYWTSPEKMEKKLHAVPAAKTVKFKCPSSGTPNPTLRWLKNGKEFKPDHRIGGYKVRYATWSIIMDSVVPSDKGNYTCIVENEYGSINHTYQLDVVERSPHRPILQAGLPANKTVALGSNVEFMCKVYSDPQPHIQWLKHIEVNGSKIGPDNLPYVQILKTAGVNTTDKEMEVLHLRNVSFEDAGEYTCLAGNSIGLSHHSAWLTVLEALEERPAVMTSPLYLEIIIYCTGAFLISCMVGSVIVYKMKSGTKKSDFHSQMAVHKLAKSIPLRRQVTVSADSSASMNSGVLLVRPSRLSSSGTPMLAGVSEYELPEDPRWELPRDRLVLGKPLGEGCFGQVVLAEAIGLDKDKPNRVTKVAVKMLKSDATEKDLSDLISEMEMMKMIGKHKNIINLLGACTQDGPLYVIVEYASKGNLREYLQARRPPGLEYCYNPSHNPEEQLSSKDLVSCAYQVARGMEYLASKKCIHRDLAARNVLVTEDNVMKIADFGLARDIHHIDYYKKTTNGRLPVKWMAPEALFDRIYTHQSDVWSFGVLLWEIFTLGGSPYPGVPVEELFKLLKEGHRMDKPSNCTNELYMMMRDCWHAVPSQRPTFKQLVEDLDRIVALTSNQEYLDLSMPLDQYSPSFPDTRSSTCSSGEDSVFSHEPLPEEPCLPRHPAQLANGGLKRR
The description is as above. To be noted: read-out: FGFR1 (Kd nM). The method in brief: as §2

A further assay deals with T4, FGFR3 (V555M) (Homo sapiens, UniProt P22607, V555M).
T4 construct: made in house; host or cells: E. coli (BL21-derived), T7 phage
T4 sequence (P22607 23-806 V555M): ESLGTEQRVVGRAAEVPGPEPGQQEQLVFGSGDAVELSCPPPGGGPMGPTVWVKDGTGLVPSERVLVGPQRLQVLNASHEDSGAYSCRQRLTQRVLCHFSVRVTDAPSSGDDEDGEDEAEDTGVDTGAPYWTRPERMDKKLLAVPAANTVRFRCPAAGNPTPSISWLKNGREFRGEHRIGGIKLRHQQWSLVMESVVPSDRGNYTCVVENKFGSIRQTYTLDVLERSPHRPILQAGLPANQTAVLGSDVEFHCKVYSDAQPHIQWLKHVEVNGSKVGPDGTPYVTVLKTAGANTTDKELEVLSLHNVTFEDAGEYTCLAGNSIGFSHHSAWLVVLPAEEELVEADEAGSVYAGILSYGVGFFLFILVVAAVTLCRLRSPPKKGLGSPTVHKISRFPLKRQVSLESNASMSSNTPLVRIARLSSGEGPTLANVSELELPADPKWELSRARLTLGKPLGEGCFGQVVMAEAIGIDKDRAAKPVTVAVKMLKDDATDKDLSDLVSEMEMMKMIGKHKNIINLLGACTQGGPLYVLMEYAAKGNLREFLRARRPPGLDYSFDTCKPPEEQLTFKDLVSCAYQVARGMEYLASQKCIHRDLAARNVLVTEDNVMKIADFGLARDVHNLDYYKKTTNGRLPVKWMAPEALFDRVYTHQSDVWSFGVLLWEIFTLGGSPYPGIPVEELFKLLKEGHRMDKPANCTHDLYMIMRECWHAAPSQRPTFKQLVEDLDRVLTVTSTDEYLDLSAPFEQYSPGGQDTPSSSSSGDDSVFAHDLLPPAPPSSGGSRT
Described as above. To be noted: V555M mutant; read-out: FGFR3 (V555M) (Kd nM). The gist of the method:
as §2

Another assay has as its target T5, FGFR3 (Homo sapiens, UniProt P22607).
T5 construct: made in house; host or cells: E. coli (BL21-derived), T7 phage
The description is as above. To be noted: read-out: FGFR3 (Kd nM). The gist of the method:
as §2

T5 sequence (P22607 23-806): as the sequence (P22607 23-806 V555M) above, with M533V counted along it

`C[C@@H](Oc1ccc2[nH]nc(-c3cnc(N4CC(C)(NCCS(C)(=O)=O)C4)c(F)c3)c2c1)c1c(Cl)cncc1Cl` [Example 166, (R)-1-(5-(5-(1-(3,5-Dichloropyridin-4-yl)ethoxy)-1H-indazol-3-yl)-3-fluoropyridin-2-yl)-3-methyl-N-(2-(methylsulfonyl)ethyl)azetidin-3-amine]: the IC50 (in general, the concentration that gives 50% inhibition) in assay [1] was in the range of 0.1 to 50 nM; in assay [2], 50 to 200 nM; in [3], 0.1 to 50 nM; in assay [4], 0.1 to 50 nM. Also, the equilibrium dissociation constant (Kd) on FGFR4, at FGFR2, on FGFR1, on FGFR3 (V555M) and on FGFR3 was 1 to 50 nM each time.

Take `CC(C)CNC1(C)CN(c2ccc(-c3n[nH]c4ccc(O[C@H](C)c5c(Cl)cncc5Cl)cc34)cn2)C1` [Example 224, (R)-1-(5-(5-(1-(3,5-dichloropyridin-4-yl)ethoxy)-1H-indazol-3-yl)pyridin-2-yl)-N-isobutyl-3-methylazetidin-3-amine]: the concentration for half-maximal inhibition (IC50) in assay [1] lay in the range of 50 to 200 nM; in assay [2] it was 50 to 200 nM; in assay [3], 0.1 to 50 nM; in assay [4], 0.1 to 50 nM. The Kd on FGFR4, on FGFR2, on FGFR1, at FGFR3 (V555M) and at FGFR3 was 1 to 50 nM throughout.

Consider `C[C@@H](Oc1ccc2[nH]nc(-c3ccc(N4CC(C)(N5C[C@@H]6C[C@H]5CO6)C4)nc3)c2c1)c1c(Cl)cncc1Cl` [Example 229, (1S,4S)-5-(1-(5-(5-((R)-1-(3,5-dichloropyridin-4-yl)ethoxy)-1H-indazol-3-yl)pyridin-2-yl)-3-methylazetidin-3-yl)-2-oxa-5-aza-bicyclo[2.2.1]hep-tane], for which the IC50 in [1] lay within 50 to 200 nM; in assay [2] it was 50 to 200 nM; in [3] it was 0.1 to 50 nM; in [4] it was 0.1 to 50 nM. In addition, the Kd on FGFR4, on FGFR2, on FGFR1, at FGFR3 (V555M) and at FGFR3 was 1 to 50 nM throughout.

Turning to `CC(C)CNC1(C)CN(c2ncc(-c3n[nH]c4ccc(O[C@H](C)c5c(Cl)cncc5Cl)cc34)cc2F)C1` [Example 138, 1-[5-[5-[(1R)-1-(3,5-dichloro-4-pyridyl)ethoxy]-1H-indazol-3-yl]-3-fluoro-2-pyridyl]-N-isobutyl-3-methyl-azetidin-3-amine], the IC50 in [1] was in the range of 50 to 200 nM; in assay [2], 50 to 200 nM; in [3], 0.1 to 50 nM; in assay [4], 0.1 to 50 nM. Also, the Kd at FGFR4, at FGFR2, at FGFR1, at FGFR3 (V555M) and on FGFR3 was 1 to 50 nM throughout.

With `C[C@@H](Oc1ccc2[nH]nc(-c3cnc(N4CC(C)(NCP(C)(C)=O)C4)c(F)c3)c2c1)c1c(Cl)cncc1Cl` [Example 182, 1-[5-[5-[(1R)-1-(3,5-dichloro-4-pyridyl)ethoxy]-1H-indazol-3-yl]-3-fluoro-2-pyridyl]-N-(dimethylphosphorylmethyl)-3-methyl-azetidin-3-amine], the IC50 lay within 0.1 to 50 nM in [1], 200 to 1000 nM in assay [2], 0.1 to 50 nM in assay [3] and 0.1 to 50 nM in assay [4]. Further, the Kd at FGFR4, at FGFR2, at FGFR1, on FGFR3 (V555M) and at FGFR3 was 1 to 50 nM each time.

Consider `Cc1ncc(Cl)c([C@@H](C)Oc2ccc3[nH]nc(-c4ccc(N5CC(C)(N6CCOCC6)C5)nc4)c3c2)c1Cl` [Example 77, 4-[1-[5-[5-[(1R)-1-(3,5-dichloro-2-methyl-4-pyridyl)ethoxy]-1H-indazol-3-yl]-2-pyridyl]-3-methyl-azetidin-3-yl]morpholine], for which the concentration for half-maximal inhibition (IC50) in assay [1] fell in the range of 200 to 1000 nM; in assay [2], 200 to 1000 nM; in [3], 0.1 to 50 nM; in [4] it was 50 to 200 nM. For the same molecule, the dissociation constant Kd on FGFR4, at FGFR2, at FGFR1, on FGFR3 (V555M) and at FGFR3 was 1 to 50 nM throughout.

On to `CNC1(C)CN(c2ccc(-c3n[nH]c4ccc(O[C@H](C)c5c(Cl)cnc(C)c5Cl)cc34)cn2)C1` [Example 76, 1-[5-[5-[(1R)-1-(3,5-dichloro-2-methyl-4-pyridyl)ethoxy]-1H-indazol-3-yl]-2-pyridyl]-N,3-dimethyl-azetidin-3-amine], for which the half-inhibitory concentration (IC50) in assay [1] fell in the range of 200 to 1000 nM; in [2] it was 50 to 200 nM; in assay [3], 0.1 to 50 nM; in assay [4], 50 to 200 nM. Moreover, the Kd on FGFR4, at FGFR2, at FGFR1, on FGFR3 (V555M) and at FGFR3 was 1 to 50 nM throughout.

For the molecule `CCCNC1(C)CN(c2ccc(-c3n[nH]c4ccc(O[C@H](C)c5c(Cl)cncc5Cl)cc34)cn2)C1` [Example 227, 1-[5-[5-[(1R)-1-(3,5-dichloro-4-pyridyl)ethoxy]-1H-indazol-3-yl]-2-pyridyl]-3-methyl-N-propyl-azetidin-3-amine], the IC50 in [1] was 50 to 200 nM; in assay [2] it was 50 to 200 nM; in assay [3], 0.1 to 50 nM; in assay [4], 0.1 to 50 nM. In addition, the equilibrium dissociation constant (Kd) on FGFR4, at FGFR2, on FGFR1, at FGFR3 (V555M) and at FGFR3 was 1 to 50 nM in each case.

`CNC1(C)CN(c2ncc(-c3n[nH]c4ccc(O[C@@H](C)c5c(Cl)cncc5Cl)cc34)cc2F)C1` [Example 205, 1-[5-[5-[(1S)-1-(3,5-dichloro-4-pyridyl)ethoxy]-1H-indazol-3-yl]-3-fluoro-2-pyridyl]-N,3-dimethyl-azetidin-3-amine]: the IC50 in [1] was more than 1000 nM; in [2] it was more than 1000 nM; in assay [3], more than 1000 nM; in [4], 200 to 1000 nM. The dissociation constant Kd (commonly a measure of binding affinity in units of concentration) on FGFR4 fell in the range of 50 to 300 nM; on FGFR2, 300 to 1000 nM; at FGFR1, 50 to 300 nM; at FGFR3 (V555M), 1 to 50 nM; on FGFR3, 50 to 300 nM.

Consider `COc1cc2[nH]nc(-c3ccc(N4CC(C)(NCCO)C4)nc3)c2cc1O[C@H](C)c1c(Cl)cncc1Cl` [Example 83, (R)-2-((1-(5-(5-(1-(3,5-dichloropyridin-4-yl)ethoxy)-6-methoxy-1H-indazol-3-yl)pyridin-2-yl)-3-methylazetidin-3-yl)amino)ethan-1-ol], for which the IC50 in [1] was in the range of 0.1 to 50 nM; in assay [2], 50 to 200 nM; in assay [3] it was 0.1 to 50 nM; in [4] it was 0.1 to 50 nM. Besides, the dissociation constant (Kd) on FGFR4, on FGFR2, on FGFR1, at FGFR3 (V555M) and at FGFR3 was 1 to 50 nM throughout.

Consider `C[C@@H]1[C@@H](CS(C)(=O)=O)CN1c1ncc(-c2n[nH]c3ccc(O[C@H](C)c4c(Cl)cncc4Cl)cc23)cc1F` [Example 207, 5-((R)-1-(3,5-dichloropyridin-4-yl)ethoxy)-3-(5-fluoro-6-((2R,3S)-2-methyl-3-((methylsulfonyl)methyl)azetidin-1-yl)pyridin-3-yl)-1H-indazole], for which the IC50 in assay [1] is 50 to 200 nM; in [2] it was 50 to 200 nM; in [3], 0.1 to 50 nM; in assay [4], 50 to 200 nM. For the same molecule, the Kd at FGFR4, on FGFR2, at FGFR1, at FGFR3 (V555M) and at FGFR3 was 1 to 50 nM in each case.

For the molecule `C[C@H](Oc1ccc2[nH]nc(-c3cnc(N4CC(C)(CS(C)(=O)=O)C4)c(F)c3)c2c1)c1c(Cl)cncc1Cl` [Example 200, (S)-5-(1-(3,5-dichloropyridin-4-yl)ethoxy)-3-(5-fluoro-6-(3-methyl-3-((methyl-sulfonyl)meth-yl)azetidin-1-yl)pyridin-3-yl)-1H-indazole], the IC50 in [1], in assay [2], in assay [3] and in assay [4] was more than 1000 nM each time. Moreover, the Kd is 50 to 300 nM on FGFR4; more than 1000 nM at FGFR2; 300 to 1000 nM at FGFR1; 1 to 50 nM on FGFR3 (V555M); 50 to 300 nM at FGFR3.
